# Reference: patent US20190231785A1, “PHOSPHODIESTERASE INHIBITOR TREATMENT” (Cyrano Therapeutics, Inc., priority 2012, published 2019)
# Columns and labels:
# [1] = system: patients with hyposmia and hypogeusia; assay: Subjective changes in smell and taste function by questionnaire, scale 0 to 100 (Example 8); format: in vivo, human; conditions: oral 200 to 800 mg/d; of 10 patients
# Experimental: Subjective changes in smell and taste function under each study condition were measured by questionnaire before measurements of smell or taste function. Responses were graded on a scale from 0 to 100, with 0 reflecting no subjective response in overall sensory function; 100, return to normal sensory function; and values between 0 and 100 intermediate responses. Overall sensory function was defined as the ability to smell all odors and identify all tastants, although response intensity varied.
# (§1) Values for the oral trial were taken from the last measurements made before discontinuation of oral drug treatment and before initiation of the intranasal trial. This period varied from 2 to 12 months after oral treatment initiation and reflected the maximal improvement in sensory function each patient experienced.
# [2] = asthma and COPD; cited from earlier work
# [3] = system: patients with hyposmia; assay: Side effects of oral theophylline (Example 1); format: in vivo, human; conditions: divided doses in middle of meals
# Excerpt: Patients were required to take the drug in divided doses in middle of meals (breakfast and lunch).
# [4] = system: patients with hyposmia and hypogeusia; conditions: oral 200 to 800 mg/d
# Experimental: (§2) Smell and taste functions under each study condition were measured by standardized psychophysical sensory testing techniques. Measurements included determination of detection thresholds (DTs), recognition thresholds (RTs), magnitude estimation (ME), and hedonic response (HR) for 4 odors (e.g., pyridine [dead fish], nitrobenzene [bitter almond], thiophene [petroleum], and amyl acetate [banana oil]) (olfactometry) and for 4 tastants (e.g., sodium chloride [salt], sucrose [sweet], hydrochloride [sour], and urea [bitter]) (gustometry). […] Each measurement was performed independent of any prior knowledge of response.
# as §1
# (§3) The mean and standard error of the mean for all values obtained at each study condition were compared. Differences were considered significant if P<0.05 by the unpaired t test. Paired comparison tests were also used with differences considered significant if P<0.05 by the t test.
# [5] = system: patients with hyposmia and hypogeusia; conditions: oral 200 to 800 mg/d; remark: listed apart in the source
# Experimental: as §2, §1, §3
# [6] = system: cAMP; assay: Parotid saliva cAMP before and after oral theophylline (Example 2); format: in vivo, human; conditions: for parotid saliva cAMP: mean ± SEM
# Experimental: Parotid saliva was collected from each patient by application of a Lashley cup over Stensen's duct with lingual stimulation by placement of concentrated lemon juice. Saliva was collected in plastic tubes and stored at −20° C. until assayed. cAMP and cGMP were measured in saliva by a sensitive 96 plate spectrophotometric assay (R&D Systems, Minneapolis, Minn.).
# All patients were placed in a fixed design open label clinical trial with treatment with oral theophylline. Treatment consisted of fixed treatment periods of two-eight months with sequential doses of the drug at 200 mg, 400 mg and 600 mg. At termination of each of these intervals, patients returned to study site for reevaluation. At the end of each interval subjective responses to treatment were measured with a modification of the 0-100 scale previously used (vs). Subjective responses to treatment were graded on a sliding scale from −100-0-+100 with patients recording improvement (+0-+100), no improvement (0) or worsening (0-−100) of their overall smell function. If overall smell function improved ≥5% they were considered to improve clinically (1). If smell function improved <5% they were considered not to improve (1). At the end of each interval subjective measurements of smell function, measurements of DT, RT, ME and H and measurements of parotid saliva for levels of cAMP and cGMP were obtained. In addition, blood plasma was obtained by venipuncture, placed in ice into zinc free tubes which contained 100 mg zinc free heparin, centrifuged at 3000 rpm for 10-20 min, the plasma transferred to plastic PCR tubes and stored at −20° C. until assayed. Theophylline was assayed by a fluorescence polarization assay (Abbott, Chicago, Ill.), as previously described.
# Data for the cyclic nucleotides from these 31 patients was not analyzed until the entire study of the 312 patients in Example 1 was assembled and analyzed in its entirety. After completion of these analyses, all data for parotid saliva cAMP and cGMP from all patients in whom salivary cAMP and cGMP were obtained were assembled. Levels of salivary cyclic nucleotides varied widely. Initially, without external criteria, there was no way to understand these disparate data. […] In a similar manner, measurements of each patient's plasma theophylline level at each dosage of theophylline (at 200 mg, 400 mg, 600 mg of theophylline) were categorized. The two patient groups were also analyzed post hoc with respect to type of smell loss and etiology of smell loss.
smiles,measurement,setting,value
Cn1c(=O)c2[nH]cnc2n(C)c1=O [theophylline],patients reporting no improvement,[1],4 patients
same,concentrations at which anti-inflammatory effects are seen,[2],less than 10 mg/L
same,side effects among patients,[3],generally minimal
same,hyposmia (olfactometry overall),[4],improved with 2 to 12 months of treatment
same,DTs and RTs for all odorants,[4]; 2 to 12 months,decreased (more sensitive)
same,HRs for all odorants,[4]; 2 to 12 months,increased
same,MEs for all odorants,[4]; 2 to 12 months,increased (more sensitive)
same,hypogeusia (gustometry overall),[5],improved after 2 to 12 months of treatment
same,"DTs for sucrose and hydrochloride and RTs for sodium chloride, hydrochloride and urea",[5]; 2 to 12 months,decreased (more sensitive)
same,HR for hydrochloride and urea,[5]; 2 to 12 months,increased (more unpleasant)
same,magnitude estimations for all tastants,[5]; 2 to 12 months,increased (more sensitive)
same,increase of saliva cAMP above baseline,"[6]; improved patients, oral 200 mg, not significant",10%
same,increase of saliva cAMP over baseline,"[6]; improved patients, oral 400 mg, not statistically significant",40%
same,increase of saliva cAMP above initial values,"[6]; improved patients, oral 600 mg, significant",67%
same,parotid saliva cAMP,"[6]; patients with improved smell function, oral 200 mg (16 patients)",0.96 ± 0.13 pmol/mL
same,parotid saliva cAMP,"[6]; patients with unimproved smell function, oral 200 mg (9 patients)",0.78 ± 0.26 pmol/mL
same,parotid saliva cAMP,"[6]; patients with unimproved smell function, oral 400 mg (5 patients)",0.95 ± 0.26 pmol/mL
same,parotid saliva cAMP,"[6]; patients with unimproved smell function, oral 600 mg (9 patients)",0.56 ± 0.21 pmol/mL
